Consider two compounds from patent publication US11226337B2, “Chemoproteomic profiling of protein electrophilic and oxidative post-translational modifications” (Zenagem, LLC, priority 2017, dated 2022).

Test in all cases: SILAC RP-ABPP
Format in all cases: cell-based

In test [1] the target is T1, IBA57 Putative transferase CAF17 (Q5T440) (Homo sapiens, UniProt Q5T440).
T1 construct: shared by both the endogenous and recombinant forms of these proteins; endogenous in cells; host or cells: HEK293T and MDA-MB-231
T1 sequence (Q5T440 40-356): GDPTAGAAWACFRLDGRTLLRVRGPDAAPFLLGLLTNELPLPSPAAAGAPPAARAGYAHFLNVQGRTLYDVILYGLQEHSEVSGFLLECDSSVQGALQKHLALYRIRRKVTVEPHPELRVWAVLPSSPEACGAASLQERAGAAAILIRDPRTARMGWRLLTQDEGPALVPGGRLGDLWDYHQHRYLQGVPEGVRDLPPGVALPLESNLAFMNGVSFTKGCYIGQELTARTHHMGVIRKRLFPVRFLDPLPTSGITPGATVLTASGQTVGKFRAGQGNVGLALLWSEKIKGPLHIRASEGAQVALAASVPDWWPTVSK
The following applies: SILAC H/L, HEK293T.

In test [2] the target is T2, GNS Nacetylglucosamine6sulfatase (P15586) (Homo sapiens, UniProt P15586).
T2 construct: In Situ Labelling of Cells with Hydrazine Probes for MS Experiments; endogenous in cells
T2 sequence (P15586 37-552): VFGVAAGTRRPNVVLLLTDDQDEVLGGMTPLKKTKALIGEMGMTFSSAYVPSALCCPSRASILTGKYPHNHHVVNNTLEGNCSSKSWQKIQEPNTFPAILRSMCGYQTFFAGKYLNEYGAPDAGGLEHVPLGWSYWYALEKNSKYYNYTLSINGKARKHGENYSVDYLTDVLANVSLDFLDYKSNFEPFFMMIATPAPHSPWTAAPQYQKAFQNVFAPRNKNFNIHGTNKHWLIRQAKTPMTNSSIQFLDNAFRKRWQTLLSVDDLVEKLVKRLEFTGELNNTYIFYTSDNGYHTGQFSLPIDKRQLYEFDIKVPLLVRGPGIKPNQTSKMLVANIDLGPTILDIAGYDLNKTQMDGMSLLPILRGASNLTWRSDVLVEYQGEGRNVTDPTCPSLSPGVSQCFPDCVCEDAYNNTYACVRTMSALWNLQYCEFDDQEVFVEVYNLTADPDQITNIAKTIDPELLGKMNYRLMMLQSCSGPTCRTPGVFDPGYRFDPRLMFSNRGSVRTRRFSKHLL
The note with it: SILAC H/L, MDA-MB-231.

Test [3] has as its target T3, LGALS3BP Galectin3binding protein (Q08380) (Homo sapiens, UniProt Q08380).
T3 construct: In Situ Labelling of Cells with Hydrazine Probes for MS Experiments; endogenous in cells
T3 sequence (Q08380 19-585): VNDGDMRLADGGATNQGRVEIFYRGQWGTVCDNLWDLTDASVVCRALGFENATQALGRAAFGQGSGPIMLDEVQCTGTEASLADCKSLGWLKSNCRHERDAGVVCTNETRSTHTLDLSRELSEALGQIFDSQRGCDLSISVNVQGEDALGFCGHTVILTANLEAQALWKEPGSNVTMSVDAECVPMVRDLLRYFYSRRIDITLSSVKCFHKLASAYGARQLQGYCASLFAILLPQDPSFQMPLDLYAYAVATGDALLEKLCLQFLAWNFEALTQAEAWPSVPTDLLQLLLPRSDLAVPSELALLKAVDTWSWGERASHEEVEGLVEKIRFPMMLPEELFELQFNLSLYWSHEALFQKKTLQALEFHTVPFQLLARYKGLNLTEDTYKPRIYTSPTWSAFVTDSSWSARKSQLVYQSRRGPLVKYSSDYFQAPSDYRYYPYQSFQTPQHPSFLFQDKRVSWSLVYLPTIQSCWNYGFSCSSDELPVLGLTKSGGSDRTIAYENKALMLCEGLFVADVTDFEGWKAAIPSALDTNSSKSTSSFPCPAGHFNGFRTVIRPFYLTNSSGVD
The note with it: SILAC H/L, MDA-MB-231.

Take `C#CCCNC(=O)c1ccc(NN)cc1.Cl` [probe 2, N-(but-3-yn-1-yl)-4-hydrazinylbenzamide hydrochloride]: the enrichment ratioavg is recorded as 9 in test [1] (probe 2 1 mM 0.5 h vs probe 4), 7 in test [2] (probe 2 1 mM 0.5 h vs probe 4) and 7 in test [3] (probe 2 1 mM 0.5 h vs probe 4). Also, the competition ratioavg in test [1] (probe 2 vs probe 2+10x probe 4) was determined as 4; in test [2] (probe 2 vs probe 2+10x probe 4) it was 3; in test [3] (probe 2 vs probe 2+10x probe 4), 3.

As to `C#CCNN.Cl` [probe 1, prop-2-yn-1-ylhydrazine hydrochloride], the enrichment ratioavg was 14 in test [1] (probe 1 3 mM 0.5 h vs probe 3), 10 in test [2] (probe 1 3 mM 0.5 h vs probe 3) and 7 in test [3] (probe 1 3 mM 0.5 h vs probe 3). Further, the competition ratioavg in test [1] (probe 1 vs probe 1+10x probe 3), in test [2] (probe 1 vs probe 1+10x probe 3) and in test [3] (probe 1 vs probe 1+10x probe 3) was 3 throughout.
